From patent US20250313653A1, “GUEST/HOST INCLUSION COMPLEXES CONTAINING S-NITROSOGLUTATHIONE AND METHODS OF USE THEREOF” (VIRGINIA COMMONWEALTH UNIVERSITY, priority 2022, published 2025)
“And” between values parts separate entries of the source, which are not always exact repeats. Identical values can stand only once. “Also recorded” adds a separate entry of the source.

Key:
[1] = GSNO thermal decomposition via UV-Vis absorption spectroscopy; format: physicochemical; conditions: for stabilization effect on GSNO (remaining GSNO after 48 h): 2-day experiment, 0.05 M GSNO in 0.05 M PB with 0.1 M CD derivative, dark, 37° C.; for order of enhancement of GSNO stability (reduced decomposition reactivity) by the host CD: 0.1 M GSNO solution containing 0.1 M CD, pH 7.4, 37° C.
Protocol: GSNO was synthesized by nitrosation of reduced L-glutathione in acidified nitrite as previously reported.^52 After collecting GSNO precipitates and washing them using cold water and acetone, GSNO powder was vacuum dried for 4 h and stored at −20° C. GSNO powders were dissolved in phosphate buffer (PB) containing the same mole of Na2HPO4 before the pH adjustment. For example, the formal concentration of Na2HPO4 is 0.1 M when the GSNO concentration is 0.1 M. One hundred μM EDTA was always added to each solution before the solution pH was finally adjusted to 7.4 via NaOH. EDTA is a chelating agent to mask Cu^2+, a S-nitrosothiol catalyst that may exist in solvents and chemicals as an impurity.^53 For solutions with reactive agents, BSA, ascorbic acid, or cysteine was added before the pH adjustment. To prepare GSNO-CD solutions, appropriate amounts of CD powders were dissolved into the GSNO solutions prior to the pH adjustment.
Aqueous GSNO solutions were contained in 1.5 mL disposable polystyrene cuvettes. The cuvette was caped and further sealed with parafilm. The concentrations of GSNO during storage at 37° C. or 25° C. in the dark were monitored by a UV-vis spectrophotometer (Go Direct® Fluorescence/UV-VIS Spectrophotometer) at a wavelength of 545 nm. A 4 W LED white light was used as the light source for the photodecomposition experiment at room temperature. The distance between the light source and the cuvettes was approximately 10 cm. All GSNO decomposition experiments were triplicated, and the GSNO concentration was expressed as mean±standard deviation.

[2] = in water; cited from earlier work
[3] = system: fibroblast L929 cells; experiment: Cytotoxicity test (MTS assay) of lock-solution-filled silicone tubes; format: cell-based, mouse; conditions: 24-h incubation of L929 cells with silicone tubes filled with the lock solution
Protocol: L929 murine fibroblast cells were suspended in complete media (DMEM with 1% penicillin/streptomycin and 10% FBS) before being seeded in a 24-well plate at a concentration of 5×10^5 cells per well. After 24 h of incubation, the attached cells in each well were incubated in fresh media containing a sterilized 1-cm silicone tube (HelixMark® 60-011-07) filled with a lock solution with buffer, GSNO, or GSNO-αCD and with both ends sealed. MTS assays were performed following the manufacturer's procedure after an additional 24-h incubation. Absorbance at 490 nm was measured by a Cytation 3 imaging plate reader (Biotek).

Compound | stabilization effect on GSNO (remaining GSNO after 48 h) [1] | order of enhancement of GSNO stability (reduced decomposition reactivity) by the host CD [1] | also measured
2-hydroxypropyl alpha cyclodextrin [2-hydroxypropyl αCD] | significant stabilization effect |  | 
CC(=O)N[C@H](C(=O)O)C(C)(C)SN=O (racemic) [S-Nitroso-N-acetylpenicillamine] |  |  | aqueous solubility [2]: 2.1 mg/mL and < 0.01 M
CC(O)COC[C@H]1O[C@@H]2O[C@H]3[C@H](O)[C@@H](O)[C@@H](O[C@H]4[C@H](O)[C@@H](O)[C@@H](O[C@H]5[C@H](O)[C@@H](O)[C@@H](O[C@H]6[C@H](O)[C@@H](O)[C@@H](O[C@H]7[C@H](O)[C@@H](O)[C@@H](O[C@H]8[C@H](O)[C@@H](O)[C@@H](O[C@H]1[C@H](O)[C@H]2O)O[C@@H]8COCC(C)O)O[C@@H]7COCC(C)O)O[C@@H]6COCC(C)O)O[C@@H]5COCC(C)O)O[C@@H]4COCC(C)O)O[C@@H]3COCC(C)O (stereo partly drawn) [HP βCD, 2-hydroxypropyl βCD] |  | αCD>γCD>HP βCD | order of enhancement of GSNO stability (reduced decomposition reactivity) by the host CD ([1]; listed as hydroxypropyl βCD): αCD>γCD>hydroxypropyl βCD
OC[C@H]1O[C@@H]2O[C@H]3[C@H](O)[C@@H](O)[C@@H](O[C@H]4[C@H](O)[C@@H](O)[C@@H](O[C@H]5[C@H](O)[C@@H](O)[C@@H](O[C@H]6[C@H](O)[C@@H](O)[C@@H](O[C@H]7[C@H](O)[C@@H](O)[C@@H](O[C@H]1[C@H](O)[C@H]2O)O[C@@H]7CO)O[C@@H]6CO)O[C@@H]5CO)O[C@@H]4CO)O[C@@H]3CO [αCD, alpha cyclodextrin] | best | αCD>γCD>hydroxypropyl βCD; also recorded: αCD>γCD>HP βCD | cytotoxicity / cell viability (MTS) [3]: no difference in the cell viability
OC[C@H]1O[C@@H]2O[C@H]3[C@H](O)[C@@H](O)[C@@H](O[C@H]4[C@H](O)[C@@H](O)[C@@H](O[C@H]5[C@H](O)[C@@H](O)[C@@H](O[C@H]6[C@H](O)[C@@H](O)[C@@H](O[C@H]7[C@H](O)[C@@H](O)[C@@H](O[C@H]8[C@H](O)[C@@H](O)[C@@H](O[C@H]9[C@H](O)[C@@H](O)[C@@H](O[C@H]1[C@H](O)[C@H]2O)O[C@@H]9CO)O[C@@H]8CO)O[C@@H]7CO)O[C@@H]6CO)O[C@@H]5CO)O[C@@H]4CO)O[C@@H]3CO [γCD, gamma cyclodextrin] |  | αCD>γCD>hydroxypropyl βCD; also recorded: αCD>γCD>HP βCD | 
methyl alpha cyclodextrin [methyl αCD] | significant stabilization effect |  | 
